Where two headings read alike, the source gives them in different places.
Tests used:
Experiment in all cases: Kinase selectivity, P33-radiolabeled assay
Format in all cases: biochemical
Conditions in all cases: 10 μM ATP
[1] = molecular target: T1, BRAF (Homo sapiens, UniProt P15056)
T1 construct: purchased Reaction Biology Corp
In short: (§1)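 Each enzyme was exposed to 10 μM compound, with duplicate measurements, in reactions containing 10 μM ATP. Numbers are remaining activity as a percent of the vehicle (DMSO) signal.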

[2] = molecular target: T2, CK1g2 (Homo sapiens, UniProt P78368)
T2 construct: purchased Reaction Biology Corp
T2 sequence (P78368 whole entry): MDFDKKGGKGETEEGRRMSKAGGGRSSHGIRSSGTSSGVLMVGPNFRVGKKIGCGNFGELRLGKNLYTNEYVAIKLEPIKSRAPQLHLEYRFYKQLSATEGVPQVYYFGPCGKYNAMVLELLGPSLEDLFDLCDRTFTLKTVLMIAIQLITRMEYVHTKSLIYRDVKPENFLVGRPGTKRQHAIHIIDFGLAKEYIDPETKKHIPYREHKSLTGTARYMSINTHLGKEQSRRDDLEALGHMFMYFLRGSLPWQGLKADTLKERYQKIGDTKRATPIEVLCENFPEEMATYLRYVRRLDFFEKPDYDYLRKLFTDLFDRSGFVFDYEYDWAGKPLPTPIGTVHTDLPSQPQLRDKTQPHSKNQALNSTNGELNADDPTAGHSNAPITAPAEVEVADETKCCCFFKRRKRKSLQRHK
In short: as §1

[3] = molecular target: T3, CLK3 (Homo sapiens, UniProt P49761)
T3 construct: purchased Reaction Biology Corp
T3 sequence (P49761 whole entry): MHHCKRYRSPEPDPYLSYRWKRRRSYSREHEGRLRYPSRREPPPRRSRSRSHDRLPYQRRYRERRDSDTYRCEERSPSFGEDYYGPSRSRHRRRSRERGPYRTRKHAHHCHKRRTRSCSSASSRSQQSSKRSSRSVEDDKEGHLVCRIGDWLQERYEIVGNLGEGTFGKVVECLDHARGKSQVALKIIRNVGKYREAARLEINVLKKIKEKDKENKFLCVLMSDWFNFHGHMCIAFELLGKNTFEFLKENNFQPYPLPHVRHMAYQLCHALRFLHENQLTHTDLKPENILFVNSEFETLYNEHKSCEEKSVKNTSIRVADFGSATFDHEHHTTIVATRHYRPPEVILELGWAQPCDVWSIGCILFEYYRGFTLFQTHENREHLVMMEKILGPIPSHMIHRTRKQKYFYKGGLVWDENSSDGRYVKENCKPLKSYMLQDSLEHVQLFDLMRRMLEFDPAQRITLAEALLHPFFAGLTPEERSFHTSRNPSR
In short: as §1

[4] = molecular target: T4, ERBB2/HER2 (Homo sapiens, UniProt P04626)
T4 construct: purchased Reaction Biology Corp
T4 sequence (P04626 23-1255): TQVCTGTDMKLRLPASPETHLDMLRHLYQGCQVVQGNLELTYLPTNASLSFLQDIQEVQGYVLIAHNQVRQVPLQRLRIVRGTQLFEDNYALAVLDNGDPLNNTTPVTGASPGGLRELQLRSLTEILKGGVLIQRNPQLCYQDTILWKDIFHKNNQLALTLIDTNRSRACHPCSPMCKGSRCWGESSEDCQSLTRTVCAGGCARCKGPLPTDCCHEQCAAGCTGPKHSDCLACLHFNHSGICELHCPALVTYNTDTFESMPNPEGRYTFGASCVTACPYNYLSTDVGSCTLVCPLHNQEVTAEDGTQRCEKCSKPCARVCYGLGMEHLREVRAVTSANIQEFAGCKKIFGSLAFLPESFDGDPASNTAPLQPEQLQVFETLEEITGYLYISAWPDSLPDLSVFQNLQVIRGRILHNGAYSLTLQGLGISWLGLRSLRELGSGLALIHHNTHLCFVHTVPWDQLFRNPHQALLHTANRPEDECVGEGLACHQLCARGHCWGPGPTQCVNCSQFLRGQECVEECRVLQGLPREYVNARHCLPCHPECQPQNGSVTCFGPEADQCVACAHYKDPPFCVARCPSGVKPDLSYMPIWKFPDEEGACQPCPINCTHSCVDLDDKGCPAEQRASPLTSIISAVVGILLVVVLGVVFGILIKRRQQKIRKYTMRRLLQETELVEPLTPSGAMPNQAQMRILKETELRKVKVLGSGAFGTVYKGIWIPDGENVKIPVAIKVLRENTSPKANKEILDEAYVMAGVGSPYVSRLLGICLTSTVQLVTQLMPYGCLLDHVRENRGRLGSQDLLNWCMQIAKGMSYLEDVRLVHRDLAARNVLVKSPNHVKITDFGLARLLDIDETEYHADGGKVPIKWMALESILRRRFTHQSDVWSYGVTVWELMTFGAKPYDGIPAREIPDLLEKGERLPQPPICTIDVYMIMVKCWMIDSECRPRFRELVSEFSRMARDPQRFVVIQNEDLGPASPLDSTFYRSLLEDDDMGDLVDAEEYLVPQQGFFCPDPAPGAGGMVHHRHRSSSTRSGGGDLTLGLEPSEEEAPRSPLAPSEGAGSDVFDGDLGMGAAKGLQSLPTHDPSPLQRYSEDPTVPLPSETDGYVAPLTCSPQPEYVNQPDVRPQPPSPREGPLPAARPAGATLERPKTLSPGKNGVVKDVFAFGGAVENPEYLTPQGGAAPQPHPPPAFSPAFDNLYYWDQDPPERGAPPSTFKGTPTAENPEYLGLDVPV
In short: as §1

[5] = molecular target: T5, FER (Homo sapiens, UniProt P16591)
T5 construct: purchased Reaction Biology Corp
T5 sequence (P16591 whole entry): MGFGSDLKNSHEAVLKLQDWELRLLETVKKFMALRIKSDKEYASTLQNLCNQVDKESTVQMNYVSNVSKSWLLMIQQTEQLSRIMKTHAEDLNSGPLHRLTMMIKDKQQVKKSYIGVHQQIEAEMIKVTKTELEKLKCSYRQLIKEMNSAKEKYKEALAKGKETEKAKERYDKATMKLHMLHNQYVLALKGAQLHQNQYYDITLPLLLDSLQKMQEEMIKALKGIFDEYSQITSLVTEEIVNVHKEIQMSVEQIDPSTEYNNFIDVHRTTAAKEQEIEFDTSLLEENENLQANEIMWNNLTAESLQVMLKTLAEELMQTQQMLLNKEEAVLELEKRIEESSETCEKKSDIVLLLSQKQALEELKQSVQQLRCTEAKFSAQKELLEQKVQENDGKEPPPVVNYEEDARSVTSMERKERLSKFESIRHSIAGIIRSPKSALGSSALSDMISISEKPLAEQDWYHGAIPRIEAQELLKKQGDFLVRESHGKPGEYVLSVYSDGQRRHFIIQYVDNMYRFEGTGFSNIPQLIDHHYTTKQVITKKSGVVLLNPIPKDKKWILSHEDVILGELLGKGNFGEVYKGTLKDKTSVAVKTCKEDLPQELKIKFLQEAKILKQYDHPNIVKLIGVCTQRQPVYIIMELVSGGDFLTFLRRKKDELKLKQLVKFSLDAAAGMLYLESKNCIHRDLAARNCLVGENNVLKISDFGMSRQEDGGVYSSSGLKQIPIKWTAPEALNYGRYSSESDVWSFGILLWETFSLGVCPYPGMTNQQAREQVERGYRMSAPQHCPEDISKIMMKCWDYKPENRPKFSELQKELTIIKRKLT
In short: as §1

[6] = molecular target: T6, IR (Homo sapiens, UniProt P06213)
T6 construct: purchased Reaction Biology Corp
T6 sequence (P06213 28-1382): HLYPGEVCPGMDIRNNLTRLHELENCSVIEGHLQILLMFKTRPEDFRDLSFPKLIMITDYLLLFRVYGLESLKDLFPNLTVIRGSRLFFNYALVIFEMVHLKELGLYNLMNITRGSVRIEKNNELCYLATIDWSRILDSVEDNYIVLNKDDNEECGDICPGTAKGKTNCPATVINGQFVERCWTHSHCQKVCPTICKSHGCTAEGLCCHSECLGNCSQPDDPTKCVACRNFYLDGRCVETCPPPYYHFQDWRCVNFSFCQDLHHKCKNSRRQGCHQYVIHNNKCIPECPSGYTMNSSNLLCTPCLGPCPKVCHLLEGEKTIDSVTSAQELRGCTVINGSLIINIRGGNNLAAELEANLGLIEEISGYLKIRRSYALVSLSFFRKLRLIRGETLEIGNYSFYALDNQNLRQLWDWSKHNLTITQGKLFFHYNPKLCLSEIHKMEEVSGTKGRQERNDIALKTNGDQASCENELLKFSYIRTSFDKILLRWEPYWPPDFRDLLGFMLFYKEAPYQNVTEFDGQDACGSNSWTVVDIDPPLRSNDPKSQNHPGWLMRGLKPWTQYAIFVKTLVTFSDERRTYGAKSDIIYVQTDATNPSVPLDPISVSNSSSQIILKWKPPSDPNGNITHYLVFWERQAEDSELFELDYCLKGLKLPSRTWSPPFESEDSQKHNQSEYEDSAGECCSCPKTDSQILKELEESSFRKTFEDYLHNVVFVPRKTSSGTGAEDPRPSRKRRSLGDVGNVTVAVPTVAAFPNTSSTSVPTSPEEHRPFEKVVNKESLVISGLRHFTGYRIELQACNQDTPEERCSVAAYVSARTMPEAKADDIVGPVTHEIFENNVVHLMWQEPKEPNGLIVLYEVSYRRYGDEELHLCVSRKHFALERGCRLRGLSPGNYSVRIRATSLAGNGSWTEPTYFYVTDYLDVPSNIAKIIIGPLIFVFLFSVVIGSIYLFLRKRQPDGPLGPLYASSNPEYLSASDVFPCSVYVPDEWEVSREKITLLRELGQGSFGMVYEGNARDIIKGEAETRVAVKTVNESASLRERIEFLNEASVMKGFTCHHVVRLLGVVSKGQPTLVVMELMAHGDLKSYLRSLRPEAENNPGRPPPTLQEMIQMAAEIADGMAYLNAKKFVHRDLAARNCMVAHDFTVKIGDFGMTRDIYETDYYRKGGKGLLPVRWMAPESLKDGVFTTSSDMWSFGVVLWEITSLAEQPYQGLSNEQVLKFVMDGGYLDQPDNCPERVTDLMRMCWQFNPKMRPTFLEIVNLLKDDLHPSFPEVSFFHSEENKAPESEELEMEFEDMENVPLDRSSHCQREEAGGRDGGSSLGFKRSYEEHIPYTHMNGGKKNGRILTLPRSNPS
In short: as §1

[7] = molecular target: T7, MYO3b (Homo sapiens, UniProt Q8WXR4)
T7 construct: purchased Reaction Biology Corp
T7 sequence (Q8WXR4 1-1341): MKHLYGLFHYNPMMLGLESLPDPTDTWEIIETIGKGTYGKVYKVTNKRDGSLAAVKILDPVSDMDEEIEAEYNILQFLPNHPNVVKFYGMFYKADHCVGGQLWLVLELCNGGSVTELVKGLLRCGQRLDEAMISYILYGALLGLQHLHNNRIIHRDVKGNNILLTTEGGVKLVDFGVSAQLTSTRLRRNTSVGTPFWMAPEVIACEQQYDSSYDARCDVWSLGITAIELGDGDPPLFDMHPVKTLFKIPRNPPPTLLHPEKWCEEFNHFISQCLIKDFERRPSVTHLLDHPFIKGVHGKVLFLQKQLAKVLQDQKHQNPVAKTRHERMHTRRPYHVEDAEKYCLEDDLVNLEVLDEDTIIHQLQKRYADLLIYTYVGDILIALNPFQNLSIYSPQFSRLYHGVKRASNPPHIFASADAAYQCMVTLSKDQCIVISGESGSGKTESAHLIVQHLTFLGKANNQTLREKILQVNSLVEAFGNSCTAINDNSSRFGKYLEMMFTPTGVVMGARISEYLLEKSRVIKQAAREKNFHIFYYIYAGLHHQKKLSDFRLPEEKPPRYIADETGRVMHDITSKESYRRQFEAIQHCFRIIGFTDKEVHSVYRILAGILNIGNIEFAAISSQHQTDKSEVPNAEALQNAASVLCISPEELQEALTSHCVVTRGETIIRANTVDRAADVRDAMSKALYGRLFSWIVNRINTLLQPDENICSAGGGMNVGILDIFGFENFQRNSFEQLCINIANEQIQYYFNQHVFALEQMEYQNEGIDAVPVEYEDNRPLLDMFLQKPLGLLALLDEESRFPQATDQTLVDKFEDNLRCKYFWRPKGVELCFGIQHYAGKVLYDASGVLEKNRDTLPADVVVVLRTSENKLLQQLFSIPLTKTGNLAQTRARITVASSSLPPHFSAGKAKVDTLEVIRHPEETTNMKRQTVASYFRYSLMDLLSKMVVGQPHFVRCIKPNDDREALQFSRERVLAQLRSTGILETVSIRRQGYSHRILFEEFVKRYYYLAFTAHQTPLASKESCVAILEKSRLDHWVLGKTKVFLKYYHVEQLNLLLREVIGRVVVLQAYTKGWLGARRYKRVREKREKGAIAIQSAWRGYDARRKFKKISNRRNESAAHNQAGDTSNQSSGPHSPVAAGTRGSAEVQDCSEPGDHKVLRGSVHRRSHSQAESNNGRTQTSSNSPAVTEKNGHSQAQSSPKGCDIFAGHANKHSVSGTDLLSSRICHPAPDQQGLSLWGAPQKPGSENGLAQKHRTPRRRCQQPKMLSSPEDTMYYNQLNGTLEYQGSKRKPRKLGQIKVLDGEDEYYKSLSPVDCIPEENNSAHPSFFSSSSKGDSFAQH
In short: as §1

[8] = molecular target: T8, TRKB (Homo sapiens, UniProt Q16620)
T8 construct: purchased Reaction Biology Corp
In short: as §1

[9] = molecular target: T9, ULK3 (Homo sapiens, UniProt Q6PHR2)
T9 construct: purchased Reaction Biology Corp
T9 sequence (Q6PHR2 1-472): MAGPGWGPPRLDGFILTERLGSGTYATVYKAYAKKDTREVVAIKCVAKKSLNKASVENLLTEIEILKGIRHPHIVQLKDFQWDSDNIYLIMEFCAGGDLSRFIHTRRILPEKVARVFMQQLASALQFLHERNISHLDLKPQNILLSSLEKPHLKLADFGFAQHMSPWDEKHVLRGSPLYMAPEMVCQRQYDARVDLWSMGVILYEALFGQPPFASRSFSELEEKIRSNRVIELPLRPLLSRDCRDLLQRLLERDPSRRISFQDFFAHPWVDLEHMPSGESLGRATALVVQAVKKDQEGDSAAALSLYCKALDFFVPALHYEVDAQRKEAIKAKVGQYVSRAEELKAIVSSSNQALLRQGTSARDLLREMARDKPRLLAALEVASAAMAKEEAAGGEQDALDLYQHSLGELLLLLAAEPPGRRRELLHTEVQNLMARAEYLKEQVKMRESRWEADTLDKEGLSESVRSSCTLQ
In short: as §1

[10] = read-out: % Enzyme Activity (relative to DMSO controls) AVG
[11] = read-out: % Enzyme Activity (relative to DMSO controls) Data 1
[12] = read-out: % Enzyme Activity (relative to DMSO controls) Data 2

T1 sequence (P15056 whole entry): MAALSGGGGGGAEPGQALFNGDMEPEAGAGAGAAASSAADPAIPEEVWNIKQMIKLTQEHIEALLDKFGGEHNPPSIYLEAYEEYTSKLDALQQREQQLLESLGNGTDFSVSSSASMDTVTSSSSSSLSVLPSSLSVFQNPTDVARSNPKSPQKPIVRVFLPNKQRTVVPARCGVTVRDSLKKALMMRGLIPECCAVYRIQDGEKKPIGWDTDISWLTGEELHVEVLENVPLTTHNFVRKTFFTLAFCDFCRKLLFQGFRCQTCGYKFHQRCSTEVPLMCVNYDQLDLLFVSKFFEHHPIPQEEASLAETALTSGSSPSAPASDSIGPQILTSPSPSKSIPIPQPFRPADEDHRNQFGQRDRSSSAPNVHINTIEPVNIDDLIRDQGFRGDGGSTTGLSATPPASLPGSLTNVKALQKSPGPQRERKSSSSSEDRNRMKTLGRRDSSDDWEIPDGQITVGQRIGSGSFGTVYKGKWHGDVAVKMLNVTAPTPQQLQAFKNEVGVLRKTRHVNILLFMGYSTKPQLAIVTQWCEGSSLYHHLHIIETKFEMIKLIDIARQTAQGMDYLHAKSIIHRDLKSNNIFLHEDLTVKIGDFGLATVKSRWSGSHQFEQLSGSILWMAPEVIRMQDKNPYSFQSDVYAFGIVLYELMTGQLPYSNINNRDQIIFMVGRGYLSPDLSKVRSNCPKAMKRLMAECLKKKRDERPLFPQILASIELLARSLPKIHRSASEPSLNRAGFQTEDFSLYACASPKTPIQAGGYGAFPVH

## CC(C)(C)C(=O)N1N=CC[C@H]1c1ccccc1 [GSK′963]
[1]; [10]
  remaining activity at 10 µM: 89.4%
[1]; [11]
  remaining activity at 10 µM: 89.4%
[1]; [12]
  remaining activity at 10 µM: 89.4%
[2]; [10]
  remaining activity at 10 µM: 112%
[2]; [11]
  remaining activity at 10 µM: 112%
[2]; [12]
  remaining activity at 10 µM: 111%
[3]; [10]
  remaining activity at 10 µM: 107%
[3]; [11]
  remaining activity at 10 µM: 109%
[3]; [12]
  remaining activity at 10 µM: 105%
[4]; [10]
  remaining activity at 10 µM: 105%
[4]; [11]
  remaining activity at 10 µM: 102%
[4]; [12]
  remaining activity at 10 µM: 107%
[5]; [10]
  remaining activity at 10 µM: 107%
[5]; [11]
  remaining activity at 10 µM: 109%
[5]; [12]
  remaining activity at 10 µM: 105%
[6]; [10]
  remaining activity at 10 µM: 101%
[6]; [11]
  remaining activity at 10 µM: 104%
[6]; [12]
  remaining activity at 10 µM: 97.1%
[7]; [10]
  remaining activity at 10 µM: 111%
[7]; [11]
  remaining activity at 10 µM: 111%
[7]; [12]
  remaining activity at 10 µM: 111%
[8]; [10]
  remaining activity at 10 µM: 101%
[8]; [11]
  remaining activity at 10 µM: 101%
[8]; [12]
  remaining activity at 10 µM: 100%
[9]; [10]
  remaining activity at 10 µM: 91.6%
[9]; [11]
  remaining activity at 10 µM: 92.2%
[9]; [12]
  remaining activity at 10 µM: 90.9%
